According to patent US20130184318A1, “[…] […]” (THE REGENTS OF THE UNIVERSITY OF CALIFORNIA, priority 2010, published 2013):

How the values were obtained:
Type in all cases: cell-based, human
[1] = test system: HTM cells; test: AFM measurement of Young's modulus (compliance) of HTM cells before and after Lat-B exposure; conditions: for HTM Cell Modulus on Substrates, Glass: glass (GPa range), pre-dose 2.7 ± 0.7; for HTM Cell Modulus on Substrates, Homeomimetic: homeomimetic gel E = 4.0 ± 1.5 kPa, pre-dose 1.6 ± 0.2; for HTM Cell Modulus on Substrates, Pathomimetic: pathomimetic gel E = 92 ± 10 kPa, pre-dose 1.8 ± 0.5
Experimental: (§1) Primary HTM cells were obtained from corneal buttons from donors with no ocular diseases and that were not suitable for transplant. […] Cells were plated onto glass surfaces at 100,000 cells per surface. A similar number of cells were plated onto the biomimetic PA hydrogels. The cells were allowed to attach to the surfaces for 12 hours prior to the start of the experiment. Fluorescent images of the actin cytoskeleton were obtained from fixed cells stained with phalloidin-AlexaFluor 568 (Invitrogen, Carlsbad, Calif.). Fluorescent images of the cell membrane were obtained from live cells stained with wheat germ agglutinin-AlexaFluor 488 (Invitrogen).
The PA gels were then adhered to UV-cleaned, glass-bottom petri dishes (World Precision Instruments, Sarasota, Fla.), incubated in HTM medium for 12 hours, and then coated with a mixture of fibronectin and collagen (FNC coating mix, Athena Environmental Sciences, Baltimore, Md.) for 10 minutes prior to cell seeding. HTM cells were added to these dishes in media and were allowed to incubate overnight to ensure proper cell adhesion to the FNC-coated PA gels. Immediately prior to AFM measurements, the HTM media was rinsed away with PBS. This was done because fetal bovine serum is known to inactivate Lat-B (Spector, et al., (1989) Cell Motil Cytoskeleton 13:127-144).
The contact mechanics of the PA substrates and the HTM cells were studied with two MFP-3D atomic force microscopes (Asylum Research, Santa Barbara, Calif.) interfaced with either an Olympus (FluoView 1000 laser scanning confocal microscope, Olympus America, Center Valley, Pa.) or Zeiss (Axio Observer A1, Carl Zeiss, Thornwood, N.Y.) inverted microscope. No differences in contact mechanics of the samples were observed between the two instruments. The AFM probes in the substrate studies were silicon nitride cantilevers (PNP-TR-50, k=60 pN/nm, NanoAndMore, Lady's Island, S.C.) with a square pyramid tip incorporated at the free end. For each experiment, the actual spring constant of the cantilever was determined by monitoring the amplitude of the lever's thermal vibration at resonance and applying the equipartition theorem (Hutter, et al., (1993) Review of Scientific Instruments 64:3342-3342). Probe indentation measurements were obtained over the central region of the cell where the nucleus was present.
Compliance of the HTM cells and PA gels was quantified by fitting the force, generated by the indenting probe, vs. the depth of indentation with equation 1 (Hertz, H. (1882) J. Reine Angew. Mathematik 92:156-171; Love, A. E. H. (1939) Quarterly Journal of Mathematics 10:161-175; Harding, et al., (1945) Proceedings of the cambridge philosophical society 41:16-26).
Where α is the half-angle opening of the square pyramid tip (35°), ν is Poisson's ratio, E is Young's modulus and δ is the penetration depth. By using Eq. 1, we have assumed that the HTM cells and PA gels were perfectly elastic, isotropic, and infinitely thick and that the square pyramid indenter was a rigid cone. A Poisson ratio of 0.5 (incompressible) for both the cell and polyacrylamide gels was assigned, since both samples were well hydrated. This allows a solution for Young's modulus of the sample.
Application of Eq. 1 is not straightforward, as both the cells and gels were not perfectly elastic or isotropic, they were viscoelastic and anisotropic, and they were also not infinitely thick. However, in the limit of small indentations both the cells and gels were well described by Eq. 1. The method proposed by Mahaffey et al., (Phys Rev Lett (2000) 85:880-883) was applied to quantitatively define the indentation depth over which these viscoelastic materials behave as elastic bodies. This is accomplished by plotting experimental values of E vs. δ during tip indentation and noting the penetration depth over which E remains constant. […]

[2] = test system: HTM cells; test: Confocal/fluorescence imaging of HTM cell morphology on latrunculin exposure and recovery; conditions: for cell morphology: 0.2 μM latrunculin
Experimental: as §1
Latrunculin B influences cytoskeleton of cells by associating with actin. […] The micrographs were taken with a confocal AFM. The live HTM cells were labeled with fluorescent wheat germ agglutinin and the latrunculin was added. […] Measurements of compliance were taken prior to the introduction of drug, and at the 30 minute time point. The cells had moduli of 2.0 kPa prior to addition of latrunculin, and 0.07 kPa at 30 minutes. The concentration of drug used was not in the range of 1-100 μM used in other published studies. It should be noted, however, that the higher ranges (100 μM) were topically applied to primate eyes (20 μl) in one bolus while our studies had the drug present during the entire one hour time period. The effects of the latrunculin were profound.
The morphology of HTM cells adhered to glass and the glaucomatous (pathomimetic)polyacrylamide gel (PPA, 92.2±10.4 kPa) substrates were predominantly elongated with pronounced asymmetry. On the homeomimetic polyacrylamide gel (HPA, 4.0±1.5 kPa), the cells were predominantly adhered in a radially symmetric fashion and were considerably rounder in appearance (See, FIGS. 6 and 10). When exposed to Lat-B, HTM cells on glass and PPA substrates responded in a similar fashion to other cell types previously studied (Spector, et al., (1983) Science 219:493-495, Wakatsuki, et al., (2001) Journal of Cell Science 114:1025-1036, Coue, et al., (1987) Febs Letters 213:316-318; Cha, et al., (2004) J Cell Sci 117:3353-3365). Lat-B disrupted the dynamic process of actin filament maintenance and the actin polymerization process rapidly shifted towards net depolymerization. […] These strands resembled retraction fibers observed during mitosis (Sanger, et al., (1984) Cell Tissue Res 237:409-417). Similar cable-like filaments have also been reported by Evanko, et. al., (J Histochem Cytochem (2009) 57:1041-1060).

[3] = test system: myocilin; test: Western blot of myocilin protein in HTM 631 cells; conditions: HTM 631 cells on 400 nm pitch surfaces with dexamethasone
Experimental: Protein concentration is assessed using the Bradford protein assay. Samples of 10 μg are electrophoresed on a 10% polyacrylamide gel and the protein transferred to nitrocellulose membranes as previously described^141. Antibodies for the proteins being detected are commercially available or publicly described. A chemiluminescent detection method is used with peroxidase linked antibodies to mouse, chick or rabbit in conjunction with the LumiGLO chemiluminesent kit. The banding pattern obtained on the x-ray film is quantified using ImageQuant software with the actin band serving as a normalized reference for protein loading. Imaging can also be done using a CCD camera without the use of x-ray film.

SMILES | modulus of the cells ([1]; 0.2 μM latrunculin, measured after 30 minutes, 2.0 kPa before addition) | cell resistance to deformation compared to pre-exposure levels ([1]; at 30 minutes of Lat-B exposure (0.2 μM)) | HTM Cell Modulus on Substrates, Glass ([1]; 90 min recovery after 30 min 0.2 μM Lat-B and removal) | HTM Cell Modulus on Substrates, Glass ([1]; 90 min recovery after 30 min 0.2 μM Lat-B and removal, listed as Lat-B) | HTM Cell Modulus on Substrates, Glass ([1]; 270 min recovery after 30 min 0.2 μM Lat-B and removal) | HTM Cell Modulus on Substrates, Glass ([1]; 270 min recovery after 30 min 0.2 μM Lat-B and removal, listed as Lat-B) | HTM Cell Modulus on Substrates, Homeomimetic ([1]; 90 min recovery after Lat-B) | HTM Cell Modulus on Substrates, Homeomimetic ([1]; 270 min recovery after Lat-B) | percentage difference in cell elastic modulus, PPA to HPA ([1]; maximum, at 90 minutes of recovery from Lat-B) | HTM Cell Modulus on Substrates, Pathomimetic ([1]; 90 min recovery after Lat-B) | HTM Cell Modulus on Substrates, Pathomimetic ([1]; 270 min recovery after Lat-B) | cell morphology ([2]; 30 minutes, listed as Latrunculin) | cell morphology ([2]; 30 minutes, listed as latrunculin) | cell morphology ([2]; one hour) | time to return to pre-exposure morphology after rinsing Lat-B ([2]; glass and PPA substrates) | increase in myocilin protein expression [3]
C/C1=C/C(=O)O[C@@H]2C[C@@H](CC[C@H](C)/C=C\CC1)O[C@@](O)([C@@H]1CSC(=O)N1)C2 [Latrunculin B] | 0.07 kPa | substantially decreased | 11.0 ± 2.3 kPa | 11.0±2.3 kPa | 2.3 ± 0.2 kPa | 2.3±0.2 kPa | 2.3 ± 0.2 kPa | 1.7 ± 0.5 kPa | approximately 54% | 4.0 ± 1.8 kPa | 2.0 ± 0.4 kPa | rounding of the cells | starting to round up | completely rounded | 60-90 minutes | –
C[C@@H]1C[C@H]2[C@@H]3CCC4=CC(=O)C=C[C@]4(C)[C@@]3(F)[C@@H](O)C[C@]2(C)[C@@]1(O)C(=O)CO [dexamethasone] | – | – | – | – | – | – | – | – | – | – | – | – | – | – | – | 19 fold
